Source: ChEMBL document CHEMBL1687864, “Carijodienone from the octocoral Carijoa multiflora. A spiropregnane-based steroid” (2011)
In brackets after ≈: the same amount, converted by molar mass.

Columns and labels:
Format in all cases: functional
[1] = test system: Staphylococcus aureus; test: Antibacterial activity against Staphylococcus aureus by broth macrodilution method
[2] = test system: Escherichia coli; test: Antibacterial activity against Escherichia coli by broth macrodilution method
[3] = test system: Bacillus cereus; test: Antibacterial activity against Bacillus cereus by broth macrodilution method
[4] = test system: Salmonella; test: Antibacterial activity against Salmonella by broth macrodilution method
[5] = test system: Proteus mirabilis; test: Antibacterial activity against Proteus mirabilis by broth macrodilution method
[6] = test system: Klebsiella pneumoniae; test: Antibacterial activity against Klebsiella pneumoniae by broth macrodilution method
[7] = test system: Enterococcus faecalis; test: Antibacterial activity against Enterococcus faecalis by broth macrodilution method

MIC [1] [µg/mL]	MIC [2] [µg/mL]	MIC [3] [µg/mL]	MIC [4] [µg/mL]	MIC [5] [µg/mL]	MIC [6] [µg/mL]	MIC [7] [µg/mL]	SMILES
> 40	> 40	> 40	> 40	> 40	> 40	> 40	C=C[C@H]1CC[C@H]2[C@@H]3CCC4=CC(=O)C=C[C@]4(C)[C@H]3CC[C@]12C
–	–	6 (≈ 20.2 µM)	–	–	5 (≈ 16.9 µM)	–	C=C[C@H]1CC[C@H]2[C@@H]3CC[C@@]4(C=CC(=O)C=C4C)[C@H]3CC[C@]12C [CARIJODIENONE]
